Experimental data from patent US12595251B2, “Amidines and amidine analogs for the treatment of bacterial infections and potentiation antibiotics” (GEORGIA STATE UNIVERSITY RESEARCH FOUNDATION, INC., priority 2018, dated 2026).
≈ marks a conversion by molar mass, not a printed value. Where a name gives a salt, the structure may show the parent alone.

system: wild-type E. coli; assay: Sensitization of wild-type E. coli toward antibiotics (MIC of antibiotic with/without sensitizer); format: cell-based, Escherichia coli; details: compound at 5 μg/ml; strain and antibiotic not stated in Table 8
Method: Bacteria were cultured with the antibiotic at various concentrations in the presence or absence of bacterial sensitizer for 24 hours at 37° C. Bacterial growth density was determined by measuring OD600 (absorbance measured at a wavelength of 600 nm). […]
The formula for calculating FIC is shown below: […]

Row | Compound | Sensitization fold
1 | N=C(N)c1ccc(OCc2cccc(COc3ccc(C(=N)N)cc3F)c2F)c(F)c1 [Compound A-1, 4,4′-(((2-Fluoro-1,3-phenylene)bis(methylene))bis(oxy))bis(3-fluorobenzimidamide) Dihydrochloride] | 8

system: M. smegmatis; assay: Antibacterial activity against M. smegmatis (MIC, OD600, 48 h); format: cell-based, Mycobacterium smegmatis; details: Mycolicibacterium smegmatis, MIC = 90% growth inhibition, 7H9 media, NA=no activity

Row | MIC [µM] | Compound
2 | 25 (≈ 12.6 µg/mL) | COc1cc(C2=NCCN2)ccc1OCc1cccc(COc2ccc(C3=NCCN3)cc2OC)c1F [drawing 813]
3 | 3 (≈ 1.12 µg/mL) | N=C(N)c1ccc(OCc2ccc(COc3ccc(C(=N)N)cc3)cc2)cc1 [drawing 814]
4 | 6 (≈ 2.13 µg/mL) | N=C(N)c1ccc(OCCCCCCOc2ccc(C(=N)N)cc2)cc1 [drawing 825]
5 | 6 (≈ 2.71 µg/mL) | COc1cc(C(=N)N)ccc1OCc1cccc(COc2ccc(C(=N)N)cc2OC)c1F [drawing 817]
6 | 3 to 6 (≈ 1.57 to 3.14 µg/mL) | N=C(N)c1ccc(OCc2cc(COc3ccc(C(=N)N)cc3)cc(COc3ccc(C(=N)N)cc3)c2)cc1 [drawing 828]
7 | 3 (≈ 1.43 µg/mL) | CC(C)NC(=N)c1ccc(OCc2cccc(COc3ccc(C(=N)NC(C)C)cc3)c2F)cc1 [drawing 830]
8 | 6 (≈ 2.7 µg/mL) | Cn1c(-c2ccc(-c3ccc(C(=N)N)cc3)s2)nc2cc(-c3ccc(C(=N)N)cc3)ccc21 [drawing 819]
9 | 12 (≈ 6.15 µg/mL) | CC(C)NC(=N)c1ccc(OCc2cccc(COc3ccc(C(=N)NC(C)C)cc3F)c2F)c(F)c1 [drawing 831]

Row | Compound | MIC [µM]
10 | N=C(N)c1ccc2nc(-c3ccc(OCC(F)(F)C(F)(F)COc4ccc(-c5nc6ccc(C(=N)N)cc6[nH]5)cc4)cc3)[nH]c2c1 [drawing 801] | 6 (≈ 3.78 µg/mL)
11 | Cc1cc(COc2ccc(C3=NCCN3)cc2)cc(COc2ccc(C3=NCCN3)cc2)c1 [drawing 826] | 25 (≈ 11 µg/mL)
12 | N=C(N)c1ccc(OCc2cccc(COc3ccc(C(=N)N)cc3)c2)cc1 [drawing 821] | 12 (≈ 4.49 µg/mL)
13 | COc1cc(C(=N)N)ccc1OCc1cc(C)cc(COc2ccc(C(=N)N)cc2OC)c1 [drawing 816] | 25 (≈ 11.2 µg/mL)
14 | CC(C)(C)c1cc(COc2ccc(C(=N)N)cc2)cc(COc2ccc(C(=N)N)cc2)c1 [drawing 818] | 6 (≈ 2.58 µg/mL)
15 | Cc1cc(CCc2ccc(C(=N)N)cc2)cc(CCc2ccc(C(=N)N)cc2)c1 [drawing 829] | 6 to 12 (≈ 2.31 to 4.61 µg/mL)

system: H9c2 cells; assay: Cytotoxicity in H9c2 cells (CCK-8, 24 h); format: cell-based; details: not given
Method: H9c2 (ATCC®R-1446™) cells Were used in the studies. The H9c2 cells were maintained in DMEM (Dulbeccoa's Modified Eagle's Medium) supplemented with 10% fetal bovine serum (Mid Sci; S01520HI) and 1% penicillin-streptomycin (Sigma-Aldrich; P4333) at 37° C. with 5% CO2. The H9c2 cells were seeded in 96-well plate one day before the experiment. Different concentrations of di-amidine compounds were added into the H9c2 cells. The cells were then incubated with the compounds for 24 h at 37° C. with 5% CO2. The cell viability was tested by the CCK-8. Specifically, after 24 h incubation, 10 μL CCK-8 was added to each well. After 3 h incubation at 37° C., the absorbance at 450 nm was recorded by a plate reader. The cytoxicity in HEK293 and 3T3 cells was measured using the same procedure. Data is shown in Table 5 (NT=not toxic; --=not tested).

Row | Compound | H9c2 CC^50 [µM]
16 | Fc1c(COc2ccc(C3=NCCN3)cc2)cccc1COc1ccc(C2=NCCN2)cc1 [drawing 866] | 25
17 | N=C(N)c1ccc2[nH]c(-c3ccc(-c4ccc(-c5ccc(-c6ccc(-c7nc8cc(C(=N)N)ccc8[nH]7)cc6)s5)s4)cc3)nc2c1 [drawing 849] | 50
18 | N=C(N)c1ccc(OCc2ccc(-c3ccc(C(=N)N)cc3)cc2)cc1 [drawing 852] | 50
19 | N=C(N)c1ccc(OCc2cccc(COc3ccc(C(N)=O)cc3)n2)cc1 | 50
20 | CCCCc1cc(OCc2ccc(C(=N)N)cc2)cc(OCc2ccc(C(=N)N)cc2)c1 [drawing 887] | 25
21 | N=C(N)c1ccc2nc(-c3ccc(OCC(F)(F)C(F)(F)COc4ccc(-c5nc6ccc(C(=N)N)cc6[nH]5)cc4)cc3)[nH]c2c1 [drawing 847] | 50
22 | COc1cc(C(=N)N)ccc1OCc1cccc(COc2ccc(C(=N)N)cc2OC)c1F [drawing 872] | 12.5
23 | N=C(N)c1ccc(OCCCCCCCCOc2ccc(C(=N)N)cc2)cc1 [drawing 855] | <5
24 | Cn1c(CCCCc2nc3ccc(C(=N)N)cc3n2C)nc2ccc(C(=N)N)cc21 [drawing 850] | 50
25 | N=C(N)c1ccc(OCCCCCCOc2ccc(C(=N)N)cc2)cc1 [drawing 862] | <5
26 | CC(C)(C)c1cc(COc2ccc(C(=N)N)cc2F)cc(COc2ccc(C(=N)N)cc2F)c1 [drawing 883] | 25
27 | N=C(N)c1ccc(COc2cc(OCc3ccc(C(=N)N)cc3)cc(C(F)(F)F)c2)cc1 [drawing 888] | 50
28 | Cn1c(CCc2nc3cc(C(=N)N)ccc3n2C)nc2cc(C(=N)N)ccc21 [drawing 860] | 50
29 | N=C(N)c1ccc(OCOc2ccc(C(=N)N)cc2)cc1 [drawing 858] | 50
30 | Fc1cc(C2=NCCN2)ccc1OCc1cccc(COc2ccc(C3=NCCN3)cc2F)c1F | 50
31 | N=C(N)c1ccc(Oc2ccc(C(=N)N)cc2)cc1 [drawing 851] | 50
32 | Cc1cc(COc2ccc(NC(=N)N)cc2)cc(COc2ccc(NC(=N)N)cc2)c1 | 100
33 | N=C(N)c1ccc(OCc2cccc(COc3ccc(C(=N)N)cc3)n2)cc1 [drawing 857] | 50
34 | CC(C)(C)c1cc(COc2ccc(C(=N)N)cc2)cc(COc2ccc(C(=N)N)cc2)c1 [drawing 873] | 25
35 | Cc1cc(-c2nc3cc(C(=N)N)ccc3n2C)sc1-c1ccc(OCCCCOc2ccc(C(=N)N)cc2)cc1 [drawing 856] | 50
36 | N=C(N)c1ccc(OCc2cccc(COc3ccc(C(=N)N)cc3)c2)cc1 [drawing 853] | 50
37 | Cn1c(-c2ccc(-c3ccc(C(=N)N)cc3)s2)nc2cc(-c3ccc(C(=N)N)cc3)ccc21 [drawing 848] | 50
38 | N=C(N)c1ccc(OCc2cccc(COc3ccc(C(=N)N)cc3)c2F)cc1 [drawing 859] | 50
39 | c1cc(COc2ccc(C3=NCCN3)cc2)cc(COc2ccc(C3=NCCN3)cc2)c1 [drawing 865] | <12
40 | COc1cc(C2=NCCN2)ccc1OCc1cccc(COc2ccc(C3=NCCN3)cc2OC)c1F [drawing 868] | 50

system: E. coli; assay: Sensitization of E. coli to erythromycin (sensitization fold from IC90, OD600, 20 h); format: cell-based, Escherichia coli; details: erythromycin; compound at 10 μM
Method: E. coli bacteria were cultured in Miller's broth at 37° C. overnight prior to treatment. B. subtilis bacteria were cultured in nutrient broth at 37° C. overnight prior to treatment. […] Bacterial density was measured based on OD600.

Row | Compound | SF (E. coli) at 10 μM [μM > 32 fold]
41 | CCCCc1cc(OCc2ccc(C(=N)N)cc2)cc(OCc2ccc(C(=N)N)cc2)c1 [drawing 749] | 10
42 | N=C(N)c1ccc(COc2cc(OCc3ccc(C(=N)N)cc3)cc(C(F)(F)F)c2)cc1 [drawing 750] | 10

same assay, conditions: erythromycin; compound at 12.5 μM; NA=no activity

Row | Compound | SF (E. coli) at 12.5 μM
43 | CC(C)(C)c1cc(COc2ccc(C(=N)N)cc2)cc(COc2ccc(C(=N)N)cc2)c1 [drawing 732] | 4-fold at 12.5 μM

same assay, conditions: erythromycin; compound at 20 μM

Row | Compound | SF (E. coli) at 20 μM
44 | CO/N=C(\N)c1ccc(OCc2cc(C)cc(COc3ccc(/C(N)=N\OC)cc3)c2)cc1 [drawing 748] | 4-fold at 20 μM
45 | COc1cc(OCc2ccc(C(=N)N)cc2)cc(OCc2ccc(C(=N)N)cc2)c1 | No effect at 20 μM

same assay, conditions: erythromycin; compound at 25 μM; NA=no activity

Row | Compound | SF (E. coli) at 25 μM
46 | Cc1cc(COc2ccc(C(=N)N)cc2F)cc(COc2ccc(C(=N)N)cc2F)c1 [drawing 747] | 64-fold at 25 μM

same assay, conditions: general statement on amidine substitution or ring restraint

Row | Compound | Ability to sensitize Gram-negative bacteria (while preserving ability to sensitize some Gram-positive bacteria)
47 | Cc1cc(COc2ccc(C(=N)NC(C)C)cc2)cc(COc2ccc(C(=N)NC(C)C)cc2)c1 [Compound C-3, 1,3-Bis {(4-isopropylamidino)-phenoxymethyl}-5-methylbenzene dihydrochloride] | greatly decrease, or even abolish

same assay, conditions: sensitization fold = IC90 of erythromycin without/with compound; compound concentration not given; NA=no activity, T=toxic

Row | Compound | SF (E. coli)
48 | N=C(N)c1ccc2nc(-c3ccc(OCC(F)(F)C(F)(F)COc4ccc(-c5nc6ccc(C(=N)N)cc6[nH]5)cc4)cc3)[nH]c2c1 [drawing 706] | <2
49 | N=C(N)c1ccc(OCc2cccc(COc3ccc(C(=N)N)cc3)c2F)cc1 [drawing 718] | <2
50 | Cc1cc(-c2nc3cc(C(=N)N)ccc3n2C)sc1-c1ccc(OCCCCOc2ccc(C(=N)N)cc2)cc1 [drawing 715] | <2
51 | N=C(N)c1ccc(OCc2ccc(-c3ccc(C(=N)N)cc3)cc2)cc1 [drawing 711] | <2
52 | N=C(N)c1ccc(OCc2cccc(COc3ccc(C(=N)N)cc3F)c2F)c(F)c1 [drawing 713] | 6
53 | N=C(N)c1ccc(OCc2cccc(COc3ccc(C(=N)N)cc3)c2)cc1 [drawing 712] | <2
